In US6586631B1, “Acetoacetarylamides” (Lonza, Ltd., priority 1998, dated 2003):
Each block holds one molecule with its values, some of them ahead of it.

Assay: Time to dissolve in 0.5 M aqueous sodium hydroxide solution at 20° C.
Type: physicochemical
Procedure: The novel acetoacetarylamides dissolve in a 0.5 N sodium hydroxide solution at 20° C. in from approximately half to one third of the time required by a dried acetoacetarylide prepared according to the prior art.
Water was introduced into a 1.5 l bench stirrer and adjusted to a temperature of 20° C. The stirrer was then rendered inert using nitrogen. Using two pumps, 133 g of aniline and 124 g of diketene were metered in over the course of 10 minutes. The addition of aniline was delayed by about 30 sec. At the end of the metered addition, the reaction temperature increased to 65° to 70° C. The mixture was then allowed to react for a further 30 minutes, and the reaction temperature dropped to 60° C. Vacuum cooling (450 to 120 mbar) was used to cool the mixture to 40° C., and the liquid acetoacetanilide began to crystallize, as a result of which the temperature immediately rose to about 58° C. The mixture was then cooled to 15° C. At 15° C., the solid product was centrifuged off, washed with 50 ml of water and dried at 50° C. under reduced pressure for 12 h. This method gave acetoacetanilide having a content of >99.5 percent (with a residual moisture content of <0.1 percent). The yield in terms of aniline was 97.1 percent, and in terms of diketene was 92.0 percent. A crystalline product having an average particle size of 450 to 500 μm was obtained. 50 g of the resulting acetoacetanilide (dry, 99.5 percent, water content <0.1 percent) dissolved completely at 20° C. in 500 ml of a 0.5 M aqueous sodium hydroxide solution in 25 minutes.
This gave white flakes having an average thickness of 0.08 mm and an average diameter of from 0.5 mm to […]. 55.6 g of the resulting acetoacetanilide (moist, content of acetoacetanilide 89.5 percent, water content 10 percent) dissolved completely at 20° C. in 500 ml of a 0.5 M aqueous sodium hydroxide solution in about 15 minutes.

[1] = 60 g moist pastilles in 700 ml of 0.5 M aqueous sodium hydroxide solution
[2] = 55.6 g (moist, content 89.5 percent, water content 10 percent) in 500 ml of 0.5 M aqueous sodium hydroxide solution
[3] = 60 g moist pastilles in 500 ml of 0.5 M aqueous sodium hydroxide solution

SMILES: CC(=O)CC(=O)Nc1ccc(C)cc1C [Example 9, m-acetoacetoxylidide]
time to dissolve [1]: about 18 minutes

time to dissolve completely [2]: about 17 minutes
SMILES: CC(=O)CC(=O)Nc1ccccc1 [Example 5, Acetoacetanilide]

time to dissolve completely [2]: about 15 minutes
SMILES: CC(=O)CC(=O)Nc1ccccc1 [Example 4, Acetoacetanilide]

time to dissolve [3]: about 20 minutes
SMILES: COc1ccccc1NC(=O)CC(C)=O [Example 7, o-acetoacetanisidide]

time to dissolve completely (50 g (dry, 99.5 percent, water content <0.1 percent) in 500 ml of 0.5 M aqueous sodium hydroxide solution): 25 min
SMILES: CC(=O)CC(=O)Nc1ccccc1 [Example 1, Acetoacetanilide, reference compound]

time to dissolve [1]: about 19 minutes
SMILES: CC(=O)CC(=O)Nc1ccccc1C [Example 8, o-acetoacetotoluidide]

time to dissolve completely [2]: about 17 minutes
SMILES: CC(=O)CC(=O)Nc1ccccc1 [Example 6, Acetoacetanilide]

time to dissolve [3]: about 18 minutes
SMILES: CC(=O)CC(=O)Nc1ccccc1Cl [Example 10, o-Acetoacetochloroanilide]
